# According to patent US4442031A, “Immunopotentiating peptides” (Hoffmann-La Roche Inc., priority 1983, dated 1984):
# Where no end group is shown, it is not given here.
# Key:
# [1] = system: Candida albicans ATCC 10231; test: Protective activity against Candida albicans infection in 5-FU immunosuppressed mice; format: in vivo; settings: for Survivors Day 8 / Survivors Day 15: ddY mice; for Survivors at Day 8 after infection: Table 6, i.p., ten times with 5-FU, control 1/7
# Experimental: In a series of examples, the compounds of formula I were tested for protective activity against opportunistic infections in immunosuppressed mice. Female ddY mice (6 weeks old) weighing about 26 g were pretreated daily for ten days with 5-fluorouracil (5-FU) (25 mg/kg/day, i.p.) and with thymosin α1 or with compounds of formula I (i.p.) at varying dosages. The mice were then infected with Candida albicans ATCC 10231 (1×10^5 cells or more) at 24 hour after the last treatment. One control group was administered 5-FU and saline solution and a second control group received neither 5-FU nor compound of formula I prior to infection with Candida albicans. The number of animals surviving eight days after infection with Candida albicans and 15 days after infection with Candida albicans is presented in the table below.
# Normal mice (female ddY mice, 6 weeks old) were highly tolerant to infection with Candida albicans ATCC 10231 at relatively low dose (1-2×10^5 cells, iv.). However, when pretreated daily for ten times with 5-FU (25 mg/kg/day, ip.), the mice were susceptible to infection as shown in Table 6. […] Compound A was also shown to be active against infection with Pseudomonas aeruginosa 5E81-1 and Listeria monocytogenes EGD in the immunosuppressed mice (see Tables 7 and 8).
# [2] = system: delayed-type hypersensitivity (DTH); test: Restoration of delayed-type hypersensitivity (DTH) decreased by 5-FU in BDF1 mice; format: in vivo; settings: i.p.; for DTH response %: % of control
# Experimental: A poor prognosis is often observed in cancer patients with impaired immune response. Impaired immune response can be caused by the cancer itself, by chemotherapeutic agents, or by radiotherapy. Thus, therapeutic agents which restore impaired immune response in cancer patients are expected to play an important role in combination therapy. The restoration activity of the compounds of the invention on impaired cell-mediated immunity was determined by measuring the enhancement of delayed-type hypersensitivity (DTH), which was decreased to a great extent in mice treated with 5-fluorouracil (5-FU).
# Female BDF1 mice (20-22 g, 11-12 weeks old) received (i.p. or p.o.) the compound to be tested on consecutive days one day before, concurrently with and 1 and 2 days after the 5-FU treatment. For DTH measurement, 10^8 chicken red blood cells (CRBC) were injected i.p. (or s.c. into the left hind footpad) and challenged s.c. into the right hind footpad at 3 and 7 days after the 5-FU treatment, respectively. Restoration activity was calculated by the following formula from the DTH response observed in the control group, 5-FU treated group treatment and the Test group treated both with 5-FU and the compound of the invention. Restoration activity was calculated by the formula: [formula]
# [3] = Example 8, 4.0 μg/kg i.p. daily for ten days with 5-FU
# [4] = Example 8, 40.0 μg/kg i.p. daily for ten days with 5-FU
# [5] = Table 3, first experiment, 5-FU plus 0.05 μg/kg/day
# [6] = Table 3, first experiment, 5-FU plus 0.5 μg/kg/day
# [7] = Table 3, first experiment, 5-FU plus 5.0 μg/kg/day
# [8] = Table 3, second experiment, 5-FU plus 0.5 μg/kg/day
# [9] = Table 3, second experiment, 5-FU plus 5.0 μg/kg/day
# [10] = Table 3, second experiment, 5-FU plus 50.0 μg/kg/day
substance,measurement,setting,value
"KSEVVE [Compound B, L-Lysyl-L-seryl-L-glutamyl-L-valyl-L-valyl-L-glutamic acid]",Survivors Day 8,[1]; [3],6/7
same,Survivors Day 15,[1]; [3],3/7
same,Survivors Day 8,[1]; [4],3/7
same,Survivors Day 15,[1]; [4],3/7
same,Survivors Day 8,"[1]; Example 9, 4.0 μg/kg i.p. daily for ten days with 5-FU",5/7
same,Survivors Day 8,"[1]; Example 9, 40.0 μg/kg i.p. daily for ten days with 5-FU",5/7
same,Survivors at Day 8 after infection,[1]; 4 μg/kg/day,5/7
same,Survivors at Day 8 after infection,[1]; 40 μg/kg/day,5/7
same,DTH response av. ± S.E. (0.1 mm),"[2]; Table 3, first experiment (control 8.5, 5-FU alone 4.8), 5-FU plus 0.05 μg/kg/day",7.2 ± 0.8 0.1 mm
same,DTH response av. ± S.E. (0.1 mm),"[2]; Table 3, first experiment (control 8.5, 5-FU alone 4.8), 5-FU plus 0.5 μg/kg/day",6.5 ± 0.7 0.1 mm
same,DTH response av. ± S.E. (0.1 mm),"[2]; Table 3, first experiment (control 8.5, 5-FU alone 4.8), 5-FU plus 5.0 μg/kg/day",8.5 ± 1.0 0.1 mm
same,Restoration Activity(%),[2]; [5],65.0%
same,DTH response %,[2]; [5],84.7%
same,Restoration Activity(%),[2]; [6],48.0%
same,DTH response %,[2]; [6],77.2%
same,Restoration Activity(%),[2]; [7],100%
same,DTH response %,[2]; [7],100%
same,DTH response av. ± S.E. (0.1 mm),"[2]; Table 3, second experiment (control 15.1, 5-FU alone 8.1), 5-FU plus 0.5 μg/kg/day",8.5 ± 0.9 0.1 mm
same,DTH response av. ± S.E. (0.1 mm),"[2]; Table 3, second experiment (control 15.1, 5-FU alone 8.1), 5-FU plus 5.0 μg/kg/day",8.3 ± 1.8 0.1 mm
same,DTH response av. ± S.E. (0.1 mm),"[2]; Table 3, second experiment (control 15.1, 5-FU alone 8.1), 5-FU plus 50.0 μg/kg/day",9.4 ± 0.8 0.1 mm
same,Restoration Activity(%),[2]; [8],6.5%
same,DTH response %,[2]; [8],56.4%
same,Restoration Activity(%),[2]; [9],3.1%
same,DTH response %,[2]; [9],54.8%
same,Restoration Activity(%),[2]; [10],18.3%
same,DTH response %,[2]; [10],61.9%
same,DTH restoration activity (in words),[2]; Tables 2 and 3,active
